# Assay results published in publication PMC6286318, “Structure-function-guided exploration of the antimicrobial peptide polybia-CP identifies activity determinants and generates synthetic therapeutic candidates” (Communications Biology, 2018).
# “Also recorded” adds a separate entry of the source. No end group written: not given here.
# What was measured:
# [1] = Stability assay, resistance to degradation in fetal bovine serum; assay type: in vitro ADME; settings: GIBCO fetal bovine serum, RP-LC peak area, three independent replicates; for Resistance to protease-mediated degradation in fetal bovine serum (in words): followed up to 6 h
# Description: Fig. 6 Hemolysis and resistance to protease-mediated degradation of engineered peptides. a Schematic of experimental design and hemolytic assay results of Pol-CP-NH2 and derivatives, where hemolytic activity was evaluated by incubating the peptides (0.1–100 μmol L^−1) with human red blood cells in PBS at room temperature for 1 h. Experiments were performed in three independent replicates. b Resistance to degradation of Pol-CP-NH2 and analogs exposed to fetal bovine serum (FBS) proteases for 6 h. Experiments were done in three independent replicates (statistical significance was determined using one-way ANOVA, *p < 0.039, error bars represent standard deviation values)
# The resistance to degradation assay is detailed by Powell et al.[89], and peptides were exposed to GIBCO fetal bovine serum. The reaction kinetics were followed by reverse-phase liquid chromatography and the percentage of remaining peptide was calculated by integrating the peptide peak area.
# [2] = Circular dichroism spectroscopy, helical fraction (fH); assay type: physicochemical; settings: CD
# Description: Fig. 3 Physicochemical features and structure of Pol-CP-NH2 and Ala-scan analogs. a Circular dichroism spectra of Pol-CP-NH2 and Ala-scan derivatives at 50 µmol L^−1 in water, PBS (pH 7.4) and TFE/Water (3:2, v/v) showing peptides transition from unstructured in water to helically structured in TFE/water. Circular dichroism spectra were recorded after four accumulations at 20 °C, using a 1 mm path length quartz cell, between 260 and 190 nm at 50 nm min^-1, with a bandwidth of 0.5 nm. b MIC (µmol L^−1) average for each peptide against the first set of bacteria (E. coli BL21, P. aeruginosa PA01 and PA14, and S. aureus ATCC12600) in three independent replicates vs. fH in TFE/Water solution, where blue boxes represent peptides with lower activity and red boxes show peptides with higher activity compared to the wild-type. Optimal activity is reached in most of the cases for fH values higher than the wild-type
# Fig. 4 Physicochemical features and structure of Pol-CP-NH2 and second-generation analogs. Circular dichroism spectra of the peptides at 50 µmol L^−1 in water, MeOH/Water (1:1, v/v), PBS (pH 7.4), POPC (10 mmol L^−1), POPC:DOPE (3:1, 10 mmol L^−1), POPC:POPG (3:1, 10 mmol L^−1), SDS (20 mmol L^−1), TFE/Water (2:3, 3:2, 4:1, v/v) showing peptides transition from unstructured in water to helically structured in TFE/water. Circular dichroism spectra were recorded after four accumulations at 20 °C, using a 1 mm path length quartz cell, between 260 and 190 nm at 50 nm min^−1, with a bandwidth of 0.5 nm
# Circular dichroism experiments were performed on a J-815 Circular Dichroism Spectropolarimeter (Jasco). Measurements conditions are described by Torres et al.[84] Peptides at 50 μmol L^−1 were analyzed in ten different environments: water, PBS (pH 7.4), methanol/water (1:1; v-v), TFE/Water (2:3, 3:2 and 4:1; v-v), 10 mmol L^−1 POPC, 10 mmol L^−1 POPC:DOPE (3:1) and 10 mmol L^−1 POPC:POPG (3:1). Vesicles were prepared according to Torres et al.[35]. A Fourier transform filter was applied to minimize background effects.
# [3] = RP-HPLC retention time (correlated with hydrophobicity); assay type: physicochemical; settings: chromatographic, RP-HPLC Supelcosil C18 (4.6 x 150 mm), 60 Å, 5 μm; A 0.1% TFA/H2O, B 0.1% TFA in 90% ACN/H2O; 5-95% B in 30 minutes; 1.0 mL min-1; 220 nm; correlated with Heliquest hydrophobicity
# Description: First, theoretical values of physicochemical features such as hydrophobicity, hydrophobic moment, and net positive charge were calculated, and helical wheels were generated using the Heliquest webserver[31] (Table 1 and Supplementary Figure 1). Hydrophobicity values produced by the server were correlated with retention times obtained by RP-HPLC analyses (Supplementary Table 1), confirming the accuracy of the computational predictions. Next, peptides were synthesized and tested against the Gram-negative bacteria Escherichia coli and Pseudomonas aeruginosa, as well as against the Gram-positive bacterium Staphylococcus aureus. We obtained slightly different results from those reported by Souza et al.[30], who described activity against Gram-positive bacteria but poor activity against Gram-negative species. […] MIC results were confirmed by colony-forming unit (CFU) counts of bacteria after one day of exposure to the peptides (Supplementary Figure 2).
# Supplem enta r y Ta b le 1. Summary of Pol-CP-NH2 and desi gned anal ogs.
# Label Pep t id e Sequence Molecular Ob s erv ed Pu rit y HPLC HC50 MIC SIe Cyt oto xic it y
# Weight Molecular (%)b Retention (µmo l L-1)d Av er a g e (µmo l L-1)
# (D a) Weight (D a)a Time (min)c (µmo l L-1)
# aLC/ESI-MS data were obtained on a Model 6130 Infinity mass spectrometer coupled to a Model 1260 HPLC system (Agilent), using a Phenomenex Gemini C18 column (2.0 […]
# [4] = tested on: HEK293 human embryonic kidney cells; experiment: Cytotoxicity assay (MTS); assay type: cell-based; settings: for Cytotoxic concentration relative to MIC against P. aeruginosa: HEK293, 48 h, MTS, compared with MIC against P. aeruginosa; for Cytotoxicity (concentration showing cytotoxic activity): HEK293, 50,000 cells per well, peptides 0-64 μmol L-1, 37 °C, 48 h, MTS assay, three independent replicates
# Description: Fig. 7 Cytotoxicity of engineered peptides. a Schematic of the experimental design for cytotoxicity assays of Pol-CP-NH2 and derivatives against HEK293 human embryonic kidney cells. Briefly, cells were cultured in DMEM medium supplemented with FBS and antibiotics at 37 °C and 5% CO2 and b results obtained by seeding HEK293 50,000 cells and incubating with peptides’ solution (0–64 μmol L^−1) at 37 °C for 48 h. Cell viability was measured by MTS assay. All experiments were performed in independent triplicates (heat map values represent mean values of three independent replicates)
# Human embryonic kidney 293 (HEK 293) cells were cultured in Dulbecco’s Modified Eagle Medium suplemented with 10% Fetal Bovine Serum and 1% penicillin-streptomycin at 37 °C in 5% CO2. The day before treatment, 50,000 HEK 293 cells were seeded into each well in 96-well plates. The peptides were added at concentrations ranging from 0 to 64 μmol L^−1 and 48 h after exposure, cell viability was measured by means of MTS (dimethylthiazol-carboxymethoxyphenyl-sulfophenyl-tetrazolium) assay. Experiments were performed in three independent replicates for each condition.
# [5] = Toxicity to mice in the skin infection model (body weight); assay type: in vivo; settings: infected mice treated with 64 μmol L-1 peptide; body weight normalized by non-infected mice
# Description: Fig. 8 In vivo activity of Pol-CP-NH2 and its analogs. a Schematic of the experimental design. Briefly, the back of mice was shaved and an abrasion was generated to damage the stratum corneum and the upper layer of the epidermis. Subsequently, an aliquot of 50 μL containing 5 × 10^7 CFU of P. aeruginosa in PBS was inoculated over each defined area. […] Four animals per group were euthanized and the area of scarified skin was excised two days post-infection b homogenized using a bead beater for 20 min (25 Hz), and serially diluted for CFU quantification (statistical significance was determined using two-way ANOVA followed by Dunnett’s test, ****p < 0.0001). c Mouse body weight measurements throughout the experiment normalized by the body weight of non-infected mice.
# The anti-infective activity of peptides against P. aeruginosa strain PA14 in a mouse model was assessed according to Pane et al.[90] CD-1 IGS female mice (six-weeks-old) were used and maintained in accordance with the Guide for the Care and Use of Laboratory Animals in an AAALAC-accredited facility. All procedures were approved by the MIT’s Institutional Animal Care and Use Committee (IACUC), protocol number 1016-064-19. Two independent experiments were performed with 4 mice per group in each condition. Statistical significance was assessed using a one-way ANOVA.
substance,measurement,setting,value
"GLGTILGLLKSL-NH2 [Peptide 20, [Gly]^1-Pol-CP-NH2]",Resistance to protease-mediated degradation in fetal bovine serum (in words),[1],degraded in a few minutes
"ILETKLGLLKSE-NH2 [Peptide 19, [Glu]^3-[Lys]^5-[Glu]^12-Pol-CP-NH2]","Helical fraction fH, MeOH/Water (1:1)","[2]; peptide 50 µmol L-1, MeOH/Water 1:1 v/v, 20 °C",0.02
same,"Helical fraction fH, PBS","[2]; peptide 50 µmol L-1, PBS pH 7.4, 20 °C",0.03
same,"Helical fraction fH, POPC","[2]; peptide 50 µmol L-1, POPC 10 mmol L-1 vesicles, 20 °C",0
same,"Helical fraction fH, POPC/DOPE (3:1)","[2]; peptide 50 µmol L-1, POPC:DOPE 3:1 mol:mol 10 mmol L-1 vesicles, 20 °C",0.03
same,"Helical fraction fH, POPC/POPG (3:1)","[2]; peptide 50 µmol L-1, POPC:POPG 3:1 mol:mol 10 mmol L-1 vesicles, 20 °C",0.04
same,"Helical fraction fH, SDS","[2]; peptide 50 µmol L-1, SDS 20 mmol L-1 micelles, 20 °C",0.13
same,"Helical fraction fH, TFE/Water (2:3)","[2]; peptide 50 µmol L-1, TFE/Water 2:3 v/v, 20 °C",0.24
same,"Helical fraction fH, TFE/Water (3:2)","[2]; peptide 50 µmol L-1, TFE/Water 3:2 v/v, 20 °C",0.21
same,"Helical fraction fH, TFE/Water (4:1)","[2]; peptide 50 µmol L-1, TFE/Water 4:1 v/v, 20 °C",0.31
same,"Helical fraction fH, Water","[2]; peptide 50 µmol L-1, water, 20 °C, 1 mm cell",0.05
same,HPLC Retention Time,[3],9.2 min
"ILGKILGLLKSL-NH2 [Peptide 15, [Lys]^4-Pol-CP-NH2]",Cytotoxic concentration relative to MIC against P. aeruginosa,[4],two-fold to four-fold higher than their MICs
same,Resistance to protease-mediated degradation in fetal bovine serum (in words),[1],increased resistance to protease-mediated degradation
same,remaining at 6 h,"[1]; six hours of exposure, read-out: Remaining peptide after exposure to fetal bovine serum",~50%
"ILGTILGLLKSL-NH2 [WT, Pol-CP-NH2, reference compound]",Cytotoxicity (concentration showing cytotoxic activity),[4]; listed as wild-type peptide,32 µmol/L
same,"Toxicity to mice / body weight, in words",[5],did not change abruptly
"ILGTILKLLKSL-NH2 [Peptide 16, [Lys]^7-Pol-CP-NH2]",Cytotoxicity (concentration showing cytotoxic activity),[4],16 µmol/L
same,Cytotoxic concentration relative to MIC against P. aeruginosa,[4],two-fold to four-fold higher than their MICs
same,Resistance to protease-mediated degradation in fetal bovine serum (in words),[1],increased resistance to protease-mediated degradation
same,"Toxicity to mice / body weight, in words",[5],did not change abruptly; also recorded: non-toxic to mice
